Experimental data: ChEMBL document CHEMBL5465560, “Selectivity Literature for EUbOPEN Chemogenomic Library” (2024)

What was measured:
[1] = target: Serine/threonine-protein kinase 38 (Homo sapiens) (UniProt Q15208); experiment: Selectivity interaction (KinomeScan (DiscoverX)) EUB0000666a STK38; details: at 10 µM
[2] = target: PAS domain-containing serine/threonine-protein kinase (Homo sapiens) (UniProt Q96RG2); experiment: Selectivity interaction (SelectScreen profiling (Invitrogen)) EUB0000607a PASK; details: at 2 µM
[3] = target: T1, Tyrosine-protein kinase Mer (Homo sapiens) (UniProt Q12866); experiment: Selectivity interaction (Kinase panel (Invitrogen)) EUB0000639a MERTK; details: at 200 nM
T1 sequence (whole entry): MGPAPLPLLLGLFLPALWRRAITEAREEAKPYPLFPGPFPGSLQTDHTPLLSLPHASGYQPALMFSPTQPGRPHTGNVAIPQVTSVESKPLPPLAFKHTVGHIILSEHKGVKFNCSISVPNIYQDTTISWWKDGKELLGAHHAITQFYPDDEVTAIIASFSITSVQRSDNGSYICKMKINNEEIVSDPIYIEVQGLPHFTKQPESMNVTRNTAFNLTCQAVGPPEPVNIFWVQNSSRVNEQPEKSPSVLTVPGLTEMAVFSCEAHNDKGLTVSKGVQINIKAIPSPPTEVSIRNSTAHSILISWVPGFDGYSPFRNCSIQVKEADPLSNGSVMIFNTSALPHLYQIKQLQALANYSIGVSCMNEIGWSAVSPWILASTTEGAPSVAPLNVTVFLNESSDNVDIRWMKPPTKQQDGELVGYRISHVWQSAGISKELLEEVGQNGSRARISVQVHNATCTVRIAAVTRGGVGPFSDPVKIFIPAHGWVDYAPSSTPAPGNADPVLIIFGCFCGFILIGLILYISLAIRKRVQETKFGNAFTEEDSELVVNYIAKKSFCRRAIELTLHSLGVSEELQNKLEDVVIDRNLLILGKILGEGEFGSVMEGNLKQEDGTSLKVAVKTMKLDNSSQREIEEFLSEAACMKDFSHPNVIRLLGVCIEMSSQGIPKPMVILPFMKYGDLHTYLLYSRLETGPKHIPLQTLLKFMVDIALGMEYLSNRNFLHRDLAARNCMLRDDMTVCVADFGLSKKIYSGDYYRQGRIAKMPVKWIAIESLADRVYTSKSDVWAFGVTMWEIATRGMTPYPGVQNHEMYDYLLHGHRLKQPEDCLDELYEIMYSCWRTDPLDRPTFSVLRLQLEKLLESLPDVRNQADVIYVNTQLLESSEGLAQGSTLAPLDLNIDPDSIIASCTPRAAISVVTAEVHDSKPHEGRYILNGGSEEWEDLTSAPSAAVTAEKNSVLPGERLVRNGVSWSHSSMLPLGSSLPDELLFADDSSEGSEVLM

[4] = target: Mitogen-activated protein kinase kinase kinase 11 (Homo sapiens) (UniProt Q16584); experiment: Selectivity interaction (KinomeScan (DiscoverX)) EUB0000695a MAP3K11; details: at 100 nM
[5] = target: Mitogen-activated protein kinase 11 (Homo sapiens) (UniProt Q15759); experiment: Selectivity interaction (KinomeScan (DiscoverX)) EUB0000695a MAPK11; details: at 100 nM
[6] = target: Tyrosine-protein kinase Fer (Homo sapiens) (UniProt P16591); experiment: Selectivity interaction (KinomeScan (DiscoverX)) EUB0000595a FER; details: at 10 µM
[7] = target: Serine/threonine-protein kinase PLK1 (Homo sapiens, UniProt P53350); experiment: Selectivity interaction (Kinase panel (KiNativ target engagement assay in Jurkat cells)) EUB0001635a PLK1; assay type: cell-based; details: Selectivity number of off-targets 0.0, Selectivity number of targets 233.0, Source Knowledge https://www.sciencedirect.com/science/article/pii/S2451945619300674?via%3Dihub, at 1 µM
[8] = target: Ribosomal protein S6 kinase alpha-4 (Homo sapiens) (UniProt O75676); experiment: Selectivity interaction (KinomeScan (DiscoverX)) EUB0000229b RPS6KA4; details: at 10 µM
Sequence of Ribosomal protein S6 kinase alpha-4 (Homo sapiens) (O75676 whole entry, looked up): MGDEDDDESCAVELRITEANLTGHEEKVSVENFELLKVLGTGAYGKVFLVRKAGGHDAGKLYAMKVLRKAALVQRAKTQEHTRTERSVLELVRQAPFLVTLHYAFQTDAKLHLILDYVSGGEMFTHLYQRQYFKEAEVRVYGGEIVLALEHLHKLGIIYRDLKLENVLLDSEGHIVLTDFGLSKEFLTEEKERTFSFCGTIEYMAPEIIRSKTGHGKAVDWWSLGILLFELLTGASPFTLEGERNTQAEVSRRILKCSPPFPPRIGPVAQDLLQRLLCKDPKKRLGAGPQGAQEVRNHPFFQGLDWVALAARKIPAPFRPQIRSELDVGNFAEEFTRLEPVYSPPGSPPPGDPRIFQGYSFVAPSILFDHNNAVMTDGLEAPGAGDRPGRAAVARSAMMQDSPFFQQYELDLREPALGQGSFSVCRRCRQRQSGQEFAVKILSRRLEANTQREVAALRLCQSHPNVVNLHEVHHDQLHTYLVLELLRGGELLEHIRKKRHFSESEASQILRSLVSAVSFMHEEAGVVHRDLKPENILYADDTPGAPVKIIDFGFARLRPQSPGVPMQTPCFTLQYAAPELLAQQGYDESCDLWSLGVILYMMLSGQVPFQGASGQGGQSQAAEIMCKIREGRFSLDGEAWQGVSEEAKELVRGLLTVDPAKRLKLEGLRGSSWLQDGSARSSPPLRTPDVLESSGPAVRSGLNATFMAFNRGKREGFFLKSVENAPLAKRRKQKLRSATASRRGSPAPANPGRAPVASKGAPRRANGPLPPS

Sequence of PAS domain-containing serine/threonine-protein kinase (Homo sapiens) (Q96RG2 whole entry, the tested form may be a part): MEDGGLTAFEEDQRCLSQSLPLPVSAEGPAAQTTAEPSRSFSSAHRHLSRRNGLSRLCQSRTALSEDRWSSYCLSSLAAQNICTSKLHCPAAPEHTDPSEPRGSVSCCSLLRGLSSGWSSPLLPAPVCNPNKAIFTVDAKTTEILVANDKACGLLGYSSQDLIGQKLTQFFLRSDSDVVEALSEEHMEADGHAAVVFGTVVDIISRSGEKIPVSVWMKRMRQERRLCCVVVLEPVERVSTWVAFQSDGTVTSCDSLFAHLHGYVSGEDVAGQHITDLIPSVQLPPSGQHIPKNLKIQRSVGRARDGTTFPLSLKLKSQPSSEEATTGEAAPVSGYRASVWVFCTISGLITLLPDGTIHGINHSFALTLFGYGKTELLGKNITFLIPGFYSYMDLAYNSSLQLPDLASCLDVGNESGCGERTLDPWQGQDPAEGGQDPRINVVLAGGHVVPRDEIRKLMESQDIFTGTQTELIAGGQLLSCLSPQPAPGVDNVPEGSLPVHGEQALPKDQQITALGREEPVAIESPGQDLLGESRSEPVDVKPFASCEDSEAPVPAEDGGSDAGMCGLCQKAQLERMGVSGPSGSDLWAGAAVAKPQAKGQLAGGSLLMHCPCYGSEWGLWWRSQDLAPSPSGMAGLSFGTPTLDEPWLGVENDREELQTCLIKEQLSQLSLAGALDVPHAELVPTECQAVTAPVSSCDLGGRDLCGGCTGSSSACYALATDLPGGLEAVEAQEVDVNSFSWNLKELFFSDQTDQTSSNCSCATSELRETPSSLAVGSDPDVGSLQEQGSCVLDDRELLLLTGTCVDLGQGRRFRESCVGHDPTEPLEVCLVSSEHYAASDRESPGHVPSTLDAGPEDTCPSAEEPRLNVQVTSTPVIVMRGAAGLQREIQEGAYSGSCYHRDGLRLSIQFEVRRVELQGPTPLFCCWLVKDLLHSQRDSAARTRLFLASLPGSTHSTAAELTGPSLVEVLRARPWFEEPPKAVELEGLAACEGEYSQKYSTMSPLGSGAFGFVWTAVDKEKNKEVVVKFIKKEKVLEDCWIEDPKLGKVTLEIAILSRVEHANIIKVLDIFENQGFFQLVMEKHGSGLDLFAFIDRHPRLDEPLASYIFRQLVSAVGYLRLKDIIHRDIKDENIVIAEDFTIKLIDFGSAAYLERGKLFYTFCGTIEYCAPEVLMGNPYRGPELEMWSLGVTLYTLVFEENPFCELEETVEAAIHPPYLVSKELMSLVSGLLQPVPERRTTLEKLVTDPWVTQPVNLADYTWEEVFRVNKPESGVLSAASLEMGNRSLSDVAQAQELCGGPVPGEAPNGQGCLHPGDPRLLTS
Sequence of Serine/threonine-protein kinase PLK1 (P53350 whole entry): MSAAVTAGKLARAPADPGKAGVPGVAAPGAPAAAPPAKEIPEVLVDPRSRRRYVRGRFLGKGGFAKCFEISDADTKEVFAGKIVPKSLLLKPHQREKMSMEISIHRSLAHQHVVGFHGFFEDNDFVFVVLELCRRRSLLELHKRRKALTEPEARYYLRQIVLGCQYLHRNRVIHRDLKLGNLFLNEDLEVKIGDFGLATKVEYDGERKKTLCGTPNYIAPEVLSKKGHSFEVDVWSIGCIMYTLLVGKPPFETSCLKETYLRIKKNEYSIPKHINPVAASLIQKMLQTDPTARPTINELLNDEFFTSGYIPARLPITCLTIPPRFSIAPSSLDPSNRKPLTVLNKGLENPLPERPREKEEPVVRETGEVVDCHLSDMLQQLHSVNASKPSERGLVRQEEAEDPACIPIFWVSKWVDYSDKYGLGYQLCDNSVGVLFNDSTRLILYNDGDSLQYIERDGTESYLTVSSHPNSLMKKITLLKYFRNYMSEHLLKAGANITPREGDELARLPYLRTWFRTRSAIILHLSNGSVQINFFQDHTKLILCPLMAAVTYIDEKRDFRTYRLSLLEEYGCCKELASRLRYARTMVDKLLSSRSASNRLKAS
Sequence of Serine/threonine-protein kinase 38 (Homo sapiens) (Q15208 2-465 limits assumed): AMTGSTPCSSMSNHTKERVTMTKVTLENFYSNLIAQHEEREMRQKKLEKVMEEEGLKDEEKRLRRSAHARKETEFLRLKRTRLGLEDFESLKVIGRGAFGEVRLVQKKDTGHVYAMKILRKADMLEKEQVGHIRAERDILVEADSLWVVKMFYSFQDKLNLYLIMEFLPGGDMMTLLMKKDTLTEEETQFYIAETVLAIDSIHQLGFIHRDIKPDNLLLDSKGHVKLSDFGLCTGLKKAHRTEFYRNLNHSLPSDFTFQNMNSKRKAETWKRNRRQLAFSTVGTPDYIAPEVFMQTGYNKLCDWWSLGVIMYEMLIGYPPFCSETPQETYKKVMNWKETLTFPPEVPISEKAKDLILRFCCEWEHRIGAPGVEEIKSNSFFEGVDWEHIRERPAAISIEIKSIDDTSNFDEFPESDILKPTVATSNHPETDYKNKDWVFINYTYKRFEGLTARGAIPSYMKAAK
Sequence of Tyrosine-protein kinase Fer (Homo sapiens) (P16591 whole entry, looked up): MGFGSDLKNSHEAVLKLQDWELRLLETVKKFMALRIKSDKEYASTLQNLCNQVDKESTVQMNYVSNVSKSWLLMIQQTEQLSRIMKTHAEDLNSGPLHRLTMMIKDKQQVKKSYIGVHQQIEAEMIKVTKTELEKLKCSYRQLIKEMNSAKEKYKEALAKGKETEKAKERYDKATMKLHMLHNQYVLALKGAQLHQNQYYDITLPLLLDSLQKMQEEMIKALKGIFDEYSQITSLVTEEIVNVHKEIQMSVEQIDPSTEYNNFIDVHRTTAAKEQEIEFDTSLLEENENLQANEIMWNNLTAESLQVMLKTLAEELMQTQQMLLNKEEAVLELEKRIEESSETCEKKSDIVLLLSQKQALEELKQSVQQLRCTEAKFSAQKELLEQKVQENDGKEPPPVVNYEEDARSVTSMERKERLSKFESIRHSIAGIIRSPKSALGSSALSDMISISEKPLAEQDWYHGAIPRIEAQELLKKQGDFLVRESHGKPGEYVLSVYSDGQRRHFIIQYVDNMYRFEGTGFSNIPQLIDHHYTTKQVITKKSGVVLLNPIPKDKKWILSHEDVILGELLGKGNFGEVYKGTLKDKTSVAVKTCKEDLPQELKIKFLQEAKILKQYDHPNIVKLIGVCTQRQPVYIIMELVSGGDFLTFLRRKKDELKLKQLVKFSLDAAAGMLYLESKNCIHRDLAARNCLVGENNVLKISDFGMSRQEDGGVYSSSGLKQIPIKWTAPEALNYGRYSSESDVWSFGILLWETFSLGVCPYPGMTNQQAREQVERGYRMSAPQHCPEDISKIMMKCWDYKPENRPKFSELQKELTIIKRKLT
Sequence of Mitogen-activated protein kinase 11 (Homo sapiens) (Q15759 whole entry): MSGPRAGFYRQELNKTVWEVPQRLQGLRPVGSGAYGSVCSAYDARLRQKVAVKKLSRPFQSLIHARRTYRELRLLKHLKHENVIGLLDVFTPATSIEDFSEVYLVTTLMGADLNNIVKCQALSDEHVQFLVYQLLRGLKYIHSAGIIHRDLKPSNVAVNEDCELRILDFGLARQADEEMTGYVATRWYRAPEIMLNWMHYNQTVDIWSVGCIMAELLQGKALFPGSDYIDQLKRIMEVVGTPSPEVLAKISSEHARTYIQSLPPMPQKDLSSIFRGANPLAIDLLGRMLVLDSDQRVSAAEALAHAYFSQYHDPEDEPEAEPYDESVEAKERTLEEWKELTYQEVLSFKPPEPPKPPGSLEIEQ

## O=C(NOC[C@H](O)CO)c1ccc(F)c(F)c1Nc1ccc(I)cc1F
[1]
  % of control: 100%

## CNC(=O)Nc1ccc(-c2nc(N3CC4CCC(C3)O4)c3cnn(C4CCC5(CC4)OCCO5)c3n2)cc1
[2]
  % of inhibition: 3%

## CC[C@@H]1[C@H](F)C(=O)N[C@@H]1COc1nccc2cc(C(N)=O)c(OC)cc12 [ZIMLOVISERTIB]
[3]
  % of inhibition: 3.13%

## Cc1cc(F)c(C(=O)Nc2cccc(-c3nncn3C(C)C)n2)cc1-n1cnc(C2CC2)c1
[4]
  % of control: 79%
[5]
  % of control: 100%

## COCC(=O)NC/C=C/c1ccc2ncnc(Nc3ccc(Oc4ccc(C)nc4)c(C)c3)c2c1 [CP-724714]
[6]
  % of control: 100%

## C=CC(=O)Nc1ccc(C(=O)Nc2[nH]nc3c2CN(C(=O)N[C@H](CN(C)C)c2ccccc2)C3(C)C)cc1
[7]
  % of engagement: 8.1%

## COc1cc(N(C)c2ccnc3ccc(C(F)(F)F)cc23)cc(OC)c1OC
[8]
  % binding: 75%
